# Test results published in US9012489B2, “Phenyl-3-aza-bicyclo[3.1.0]hex-3-yl-methanones and the use thereof as medicament” (Boehringer Ingelheim International GmbH, priority 2011, dated 2015).
# Biological target: T1, GlyT1 transporter (Homo sapiens, UniProt P48067)
# T1 construct: endogenously expressing the GlyT1 transporter; host or cells: SK-N-MC human neuroblastoma cells
# T1 sequence (P48067 1-706): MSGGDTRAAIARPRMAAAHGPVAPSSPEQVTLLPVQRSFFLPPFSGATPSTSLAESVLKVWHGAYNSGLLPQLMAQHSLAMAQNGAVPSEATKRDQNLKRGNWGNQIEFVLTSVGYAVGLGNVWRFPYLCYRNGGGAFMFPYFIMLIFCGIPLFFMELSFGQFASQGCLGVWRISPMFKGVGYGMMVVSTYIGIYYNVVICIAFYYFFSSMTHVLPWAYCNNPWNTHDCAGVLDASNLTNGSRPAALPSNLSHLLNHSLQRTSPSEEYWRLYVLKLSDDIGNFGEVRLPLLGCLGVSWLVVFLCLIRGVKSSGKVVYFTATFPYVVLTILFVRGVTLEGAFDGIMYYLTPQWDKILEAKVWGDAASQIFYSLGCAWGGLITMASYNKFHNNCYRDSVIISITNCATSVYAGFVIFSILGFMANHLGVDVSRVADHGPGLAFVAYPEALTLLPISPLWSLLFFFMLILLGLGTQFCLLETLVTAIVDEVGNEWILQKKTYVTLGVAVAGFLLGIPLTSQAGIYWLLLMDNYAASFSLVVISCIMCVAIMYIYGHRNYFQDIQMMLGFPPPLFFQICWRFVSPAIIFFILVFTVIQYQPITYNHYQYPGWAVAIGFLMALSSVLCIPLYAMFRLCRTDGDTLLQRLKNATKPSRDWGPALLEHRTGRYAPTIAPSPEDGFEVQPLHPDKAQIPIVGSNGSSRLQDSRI
# Assay: GlyT1 assay: 3H-glycine uptake into SK-N-MC cells (Cytostar-T format)
# Assay type: cell-based
# Details: glycine uptake in human SK-N-MC cells endogenously expressing GlyT1; 500 nM glycine, 1% DMSO, signal recorded over 60 min
# Procedure, shortened: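 Uptake slopes, measured over 60 min from the linear kinetic range, give IC50 from 8 compound concentrations, with 10 μM RG-1678 setting background. Substrate is 500 nM glycine (250 nM ³H, 250 nM unlabelled) in HBSS/5 mM alanine, 1% DMSO, after roughly 5-10 min compound preincubation. Cells: confluent SK-N-MC endogenously expressing human GlyT1.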
row,Compound,IC50 [nM]
1,"COC1(c2nc(C34CC3CN(C(=O)c3cc(S(C)(=O)=O)ccc3O[C@H](C)C(F)(F)F)C4)no2)CC1 (single isomer, unassigned) [Example 121, [5-Methanesulfonyl-2-(2,2,2-trifluoro-1-methyl-ethoxy)-phenyl]-{1-[5-(1-methoxy-cyclopropyl)-[1,2,4]oxadiazol-3-yl]-3-aza-bicyclo[3.1.0]hex-3-yl}-methanone]",349
2,"Cc1cnc(C23CC2CN(C(=O)c2cc(S(C)(=O)=O)ccc2O[C@@H](C)C(F)(F)F)C3)o1 (single isomer, unassigned) [Example 23, [5-Methanesulfonyl-2-(2,2,2-trifluoro-1-methyl-ethoxy)-phenyl]-[1-(5-methyl-oxazol-2-yl)-3-aza-bicyclo[3.1.0]hex-3-yl]-methanone]",181
3,"C[C@@H](Oc1ccc(S(C)(=O)=O)cc1C(=O)N1CC2CC2(c2nc(C3(C(F)(F)F)CC3)no2)C1)C(F)(F)F (mixture of isomers) [Example 156, [5-Methanesulfonyl-2-(2,2,2-trifluoro-1-methyl-ethoxy)-phenyl]-{1-[3-(1-trifluoromethyl-cyclopropyl)-[1,2,4]oxadiazol-5-yl]-3-aza-bicyclo[3.1.0]hex-3-yl}-methanone]",11
4,"CC(C)Oc1ccc(S(C)(=O)=O)cc1C(=O)N1CC2CC2(c2noc(C3(C(F)(F)F)CC3)n2)C1 (single isomer, unassigned) [Example 142, (2-Isopropoxy-5-methanesulfonyl-phenyl)-{1-[5-(1-trifluoromethyl-cyclopropyl)-[1,2,4]oxadiazol-3-yl]-3-aza-bicyclo[3.1.0]hex-3-yl}-methanone]",3
5,"CC(C)Oc1ccc(S(C)(=O)=O)cc1C(=O)N1CC2CC2(c2nc(C(F)(F)F)co2)C1 (single isomer, unassigned) [Example 111, (2-Isopropoxy-5-methanesulfonyl-phenyl)-[1-(4-trifluoromethyl-oxazol-2-yl)-3-aza-bicyclo[3.1.0]hex-3-yl]-methanone]",257
6,"C[C@H](Oc1ccc(S(C)(=O)=O)cc1C(=O)N1CC2CC2(c2csc(C(F)(F)F)n2)C1)C(F)(F)F (mixture of isomers) [Example 26, [5-Methanesulfonyl-2-(2,2,2-trifluoro-1-methyl-ethoxy)-phenyl]-[1-(2-trifluoromethyl-thiazol-4-yl)-3-aza-bicyclo[3.1.0]hex-3-yl]-methanone]",8
7,"C[C@H](Oc1ccc(S(C)(=O)=O)cc1C(=O)N1CC2CC2(c2noc(C3CC(F)(F)C3)n2)C1)C(F)(F)F (mixture of isomers) [Example 13, {1-[5-(3,3-Difluoro-cyclobutyl)-[1,2,4]oxadiazol-3-yl]-3-aza-bicyclo[3.1.0]hex-3-yl}-[5-methanesulfonyl-2-(2,2,2-trifluoro-1-methyl-ethoxy)-phenyl]-methanone]",9
8,"Cc1nc(C23CC2CN(C(=O)c2cc(S(C)(=O)=O)ccc2O[C@H](C)C(F)(F)F)C3)no1 (mixture of isomers) [Example 101, [5-Methanesulfonyl-2-(2,2,2-trifluoro-1-methyl-ethoxy)-phenyl]-[1-(5-methyl-[1,2,4]oxadiazol-3-yl)-3-aza-bicyclo[3.1.0]hex-3-yl]-methanone]",15
9,"C[C@@H](Oc1ccc(S(C)(=O)=O)cc1C(=O)N1CC2CC2(c2nccc(C(F)(F)F)n2)C1)C(F)(F)F (single isomer, unassigned) [Example 18, [5-Methanesulfonyl-2-(2,2,2-trifluoro-1-methyl-ethoxy)-phenyl]-[1-(4-trifluoromethyl-pyrimidin-2-yl)-3-aza-bicyclo[3.1.0]hex-3-yl]-methanone]",106
10,"Cc1cnc(C23CC2CN(C(=O)c2cc(S(C)(=O)=O)ccc2O[C@@H](C)C(F)(F)F)C3)o1 (single isomer, unassigned) [Example 22, [5-Methanesulfonyl-2-(2,2,2-trifluoro-1-methyl-ethoxy)-phenyl]-[1-(5-methyl-oxazol-2-yl)-3-aza-bicyclo[3.1.0]hex-3-yl]-methanone]",5
11,"C[C@H](Oc1ccc(S(C)(=O)=O)cc1C(=O)N1CC2CC2(c2nnc(C(F)(F)F)o2)C1)C(F)(F)F (mixture of isomers) [Example 125, [5-Methanesulfonyl-2-(2,2,2-trifluoro-1-methyl-ethoxy)-phenyl]-[1-(5-trifluoromethyl-[1,3,4]oxadiazol-2-yl)-3-aza-bicyclo[3.1.0]hex-3-yl]-methanone]",31
12,"C[C@@H](Oc1ccc(S(C)(=O)=O)cc1C(=O)N1CC2CC2(c2nc(C(F)(F)F)co2)C1)C(F)(F)F (single isomer, unassigned) [Example 114, [5-Methanesulfonyl-2-(2,2,2-trifluoro-1-methyl-ethoxy)-phenyl]-[1-(4-trifluoromethyl-oxazol-2-yl)-3-aza-bicyclo[3.1.0]hex-3-yl]-methanone]",171
13,"C[C@H](Oc1ccc(S(C)(=O)=O)cc1C(=O)N1CC2CC2(c2cncc(C(F)(F)F)c2)C1)C(F)(F)F (mixture of isomers) [Example 53, [5-Methanesulfonyl-2-(2,2,2-trifluoro-1-methyl-ethoxy)-phenyl]-[1-(5-trifluoromethyl-pyridin-3-yl)-3-aza-bicyclo[3.1.0]hex-3-yl]-methanone]",70
14,"C[C@@H](Oc1ccc(S(C)(=O)=O)cc1C(=O)N1CC2CC2(c2nnc(C3(C(F)(F)F)CC3)o2)C1)C(F)(F)F (mixture of isomers) [Example 148, [5-Methanesulfonyl-2-(2,2,2-trifluoro-1-methyl-ethoxy)-phenyl]-{1-[5-(1-trifluoromethyl-cyclopropyl)-[1,3,4]oxadiazol-2-yl]-3-aza-bicyclo[3.1.0]hex-3-yl}-methanone]",9
15,"C[C@@H](Oc1ccc(S(C)(=O)=O)cc1C(=O)N1CC2CC2(c2cc(C(F)(F)F)on2)C1)C(F)(F)F (single isomer, unassigned) [Example 50, [5-Methanesulfonyl-2-(2,2,2-trifluoro-1-methyl-ethoxy)-phenyl]-[1-(5-trifluoromethyl-isoxazol-3-yl)-3-aza-bicyclo[3.1.0]hex-3-yl]-methanone]",6
16,"C[C@H](Oc1ccc(S(C)(=O)=O)cc1C(=O)N1CC2CC2(c2cn3ccccc3n2)C1)C(F)(F)F (mixture of isomers) [Example 24, (1-Imidazo[1,2-a]pyridin-2-yl-3-aza-bicyclo[3.1.0]hex-3-yl)-[5-methanesulfonyl-2-(2,2,2-trifluoro-1-methyl-1-ethoxy)-phenyl]-methanone]",911
17,"C[C@H](Oc1ccc(S(C)(=O)=O)cc1C(=O)N1CC2CC2(c2noc(C3(C(F)(F)F)CC3)n2)C1)C(F)(F)F (single isomer, unassigned) [Example 67, [5-Methanesulfonyl-2-(2,2,2-trifluoro-1-methyl-ethoxy)-phenyl]-{1-[5-(1-trifluoromethyl-cyclopropyl)-[1,2,4]oxadiazol-3-yl]-3-aza-bicyclo[3.1.0]hex-3-yl}-methanone]",100
18,"C[C@H](Oc1ccc(S(C)(=O)=O)cc1C(=O)N1CC2CC2(c2ncc(C(F)(F)F)o2)C1)C(F)(F)F (single isomer, unassigned) [Example 132, [5-Methanesulfonyl-2-(2,2,2-trifluoro-1-methyl-ethoxy)-phenyl]-[1-(5-trifluoromethyl-oxazol-2-yl)-3-aza-bicyclo[3.1.0]hex-3-yl]-methanone]",3
19,"C[C@@H](Oc1ccc(S(C)(=O)=O)cc1C(=O)N1CC2CC2(c2nc(C(F)(F)F)no2)C1)C(F)(F)F (single isomer, unassigned) [Example 87, [5-Methanesulfonyl-2-(2,2,2-trifluoro-1-methyl-ethoxy)-phenyl]-[1-(3-trifluoromethyl-[1,2,4]oxadiazol-5-yl)-3-aza-bicyclo[3.1.0]hex-3-yl]-methanone]",2360
20,"C[C@H](Oc1ccc(S(C)(=O)=O)cc1C(=O)N1CC2CC2(c2noc(C3CC3(F)F)n2)C1)C(F)(F)F (mixture of isomers) [Example 63, {1-[5-(2,2-Difluoro-cyclopropyl)-[1,2,4]oxadiazol-3-yl]-3-aza-bicyclo[3.1.0]hex-3-yl}-[5-methanesulfonyl-2-(2,2,2-trifluoro-1-methyl-ethoxy)-phenyl]-methanone]",10
21,"COC1(c2nc(C34CC3CN(C(=O)c3cc(S(C)(=O)=O)ccc3O[C@H](C)C(F)(F)F)C4)no2)CC1 (mixture of isomers) [Example 119, [5-Methanesulfonyl-2-(2,2,2-trifluoro-1-methyl-ethoxy)-phenyl]-{1-[5-(1-methoxy-cyclopropyl)-[1,2,4]oxadiazol-3-yl]-3-aza-bicyclo[3.1.0]hex-3-yl}-methanone]",11
22,"Cc1noc(C23CC2CN(C(=O)c2cc(S(C)(=O)=O)ccc2O[C@@H](C)C(F)(F)F)C3)n1 (mixture of isomers) [Example 34, [5-Methanesulfonyl-2-(2,2,2-trifluoro-1-methyl-ethoxy)-phenyl]-[1-(3-methyl-[1,2,4]oxadiazol-5-yl)-3-aza-bicyclo[3.1.0]hex-3-yl]-methanone]",98
